# From article PMC12669672, “Structural insights into selective and dual antagonism of EP2 and EP4 prostaglandin receptors” (The EMBO Journal, 2025)
# Values joined by “and” are separate entries in the source; they are usually repeats but may differ in a detail not shown here. Identical values can stand only once. “Also recorded” adds a separate entry of the source. Like-named read-outs stand apart in the source and are kept apart here.
# Key:
# Format in all cases: cell-based
# [1] = molecular target: T1, constitutively active EP4 S319A (Homo sapiens, UniProt P35408, S319A); test: GloSensor cAMP assay, inhibition of constitutive activity; conditions: for ΔpIC50: no PGE2, pIC50 mutant - pIC50 WT, mean
# T1 construct: The full-length EP2 or EP4 was cloned into the pcDNA3.1 vector (Invitrogen), incorporating an N-terminal FLAG tag; expressed in transfected cells; host or cells: AD293
# T1 sequence (P35408 whole entry S319A): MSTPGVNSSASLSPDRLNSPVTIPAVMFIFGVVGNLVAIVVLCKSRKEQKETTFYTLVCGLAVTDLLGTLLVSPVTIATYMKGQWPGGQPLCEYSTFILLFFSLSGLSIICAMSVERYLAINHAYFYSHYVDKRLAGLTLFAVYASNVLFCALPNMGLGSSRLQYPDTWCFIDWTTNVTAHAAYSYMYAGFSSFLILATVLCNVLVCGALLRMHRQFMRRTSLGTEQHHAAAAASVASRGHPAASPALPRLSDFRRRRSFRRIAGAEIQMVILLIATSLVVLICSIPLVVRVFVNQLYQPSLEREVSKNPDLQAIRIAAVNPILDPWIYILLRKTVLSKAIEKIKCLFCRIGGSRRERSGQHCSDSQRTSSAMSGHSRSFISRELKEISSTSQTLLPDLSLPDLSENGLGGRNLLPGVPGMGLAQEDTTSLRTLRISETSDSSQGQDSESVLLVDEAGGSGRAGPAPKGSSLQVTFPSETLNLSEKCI
# Protocol: (§1) The full-length EP2 or EP4 was cloned into the pcDNA3.1 vector (Invitrogen), incorporating an N-terminal FLAG tag. AD293 cells were seeded in six-well plates containing DMEM supplemented with 10% dialyzed FBS 1 day prior to transfection. Following overnight growth, cells were transfected with a 1:1 ratio of receptor construct and GloSensor22F cAMP biosensor (Promega) plasmids.
# (§2) Twenty-four hours post-transfection, the cells were transferred to CO2-independent media containing 2% GloSensor cAMP Reagent (Promega) and distributed into 384-well assay plates at a density of 4000 cells per well in 10 μL. […] The plates were then incubated at 37 °C for an additional hour before luminescence measurements were taken using an EnVision plate reader.
# (§3) Data analysis was performed using GraphPad Prism software v8.0.1. A nonlinear regression analysis, employing a sigmoidal dose–response model, was conducted to determine the Emax values and half-maximum inhibitory concentrations (IC50) for each compound tested.
# [2] = molecular target: T2, constitutively active EP4 V72A (Homo sapiens, UniProt P35408, V72A); test: as above; conditions: for ΔpIC50: no PGE2, pIC50 mutant - pIC50 WT, mean
# T2 construct: The full-length EP2 or EP4 was cloned into the pcDNA3.1 vector (Invitrogen), incorporating an N-terminal FLAG tag; expressed in transfected cells; host or cells: AD293
# T2 sequence (P35408 whole entry V72A): as the sequence (P35408 whole entry S319A) above, with V72A, A319S counted along it
# Protocol: as §1, §2, §3
# [3] = molecular target: T3, constitutively active EP4 WT (Homo sapiens, UniProt P35408); test: as above
# T3 construct: The full-length EP2 or EP4 was cloned into the pcDNA3.1 vector (Invitrogen), incorporating an N-terminal FLAG tag; expressed in transfected cells; host or cells: AD293
# T3 sequence (P35408 whole entry): as the sequence (P35408 whole entry S319A) above, with A319S counted along it
# Protocol: as §1, §2, §3
# [4] = molecular target: T4, EP4 WT (Homo sapiens, UniProt P35408); test: GloSensor cAMP assay, antagonism of PGE2-induced cAMP; conditions: for remaining activity at 10 µM / remaining activity at 1 µM / remaining activity at 0.1 µM / remaining activity at 0.01 µM / remaining activity at 0.001 µM / remaining activity at 0.0001 µM / remaining activity at 10 pM / remaining activity at 1 pM: 1 h; for remaining activity at 0.1 µM: Grapiprant log([M]) -7
# T4 construct: The full-length EP2 or EP4 was cloned into the pcDNA3.1 vector; FLAG (N); expressed in transfected cells; host or cells: AD293 cells
# T4 sequence (P35408 whole entry): as the sequence (P35408 whole entry S319A) above, with A319S counted along it
# Protocol: as §1, §2, §3
# [5] = molecular target: EP2 WT (Homo sapiens, UniProt P43116); test: as above; set-up: The full-length EP2 or EP4 was cloned into the pcDNA3.1 vector; FLAG (N); expressed in transfected cells; host or cells: AD293 cells; conditions: 1 h, single experiments 1st-3rd, Fig. S1A
# Chain of EP2 WT (P43116 whole entry): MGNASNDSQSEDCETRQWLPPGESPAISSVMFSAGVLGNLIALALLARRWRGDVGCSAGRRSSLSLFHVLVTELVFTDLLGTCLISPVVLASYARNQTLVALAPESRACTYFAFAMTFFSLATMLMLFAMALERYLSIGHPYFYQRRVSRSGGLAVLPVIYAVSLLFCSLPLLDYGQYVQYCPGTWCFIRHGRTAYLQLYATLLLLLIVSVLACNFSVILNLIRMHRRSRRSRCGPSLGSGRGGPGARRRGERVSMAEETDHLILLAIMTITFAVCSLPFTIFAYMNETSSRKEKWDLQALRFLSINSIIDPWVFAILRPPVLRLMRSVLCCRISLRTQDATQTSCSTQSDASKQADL
# Protocol: as §1, §2, §3
structure (smiles),measurement,setting,value
CCc1nc2c(C)nc(C)cc2n1-c1ccc(CCNC(=O)NS(=O)(=O)c2ccc(C)cc2)cc1 [Grapiprant],IC50,[1],16.6 nM
same,remaining activity at 0.1 µM,"[1]; 1 h, Grapiprant log([M]) -7.00, EP4-S319A, read-out: % cAMP activity (normalized to WT)",23.1%
same,remaining activity at 0.01 µM,"[1]; 1 h, Grapiprant log([M]) -8.00, EP4-S319A, read-out: % cAMP activity (normalized to WT)",84.7%
same,remaining activity at 0.001 µM,"[1]; 1 h, Grapiprant log([M]) -9.00, EP4-S319A, read-out: % cAMP activity (normalized to WT)",130%
same,remaining activity at 1 pM,"[1]; 1 h, Grapiprant log([M]) -12.00, EP4-S319A, read-out: % cAMP activity (normalized to WT)",118%
same,"Grapiprant cAMP activity (∆pIC50 from EP4 WT), Mean","[1]; S319A, Mean",-0.598
same,ΔpIC50,[1],-0.60 ± 0.09
same,ΔpIC50,[1]; listed as grapiprant,reduced the potency
same,IC50,[2],18.6 nM
same,remaining activity at 0.1 µM,"[2]; 1 h, Grapiprant log([M]) -7.00, EP4-V72A, read-out: % cAMP activity (normalized to WT)",8.15%
same,remaining activity at 0.01 µM,"[2]; 1 h, Grapiprant log([M]) -8.00, EP4-V72A, read-out: % cAMP activity (normalized to WT)",28%
same,remaining activity at 0.001 µM,"[2]; 1 h, Grapiprant log([M]) -9.00, EP4-V72A, read-out: % cAMP activity (normalized to WT)",48.8%
same,remaining activity at 0.0001 µM,"[2]; 1 h, Grapiprant log([M]) -10.00, EP4-V72A, read-out: % cAMP activity (normalized to WT)",35.6%
same,remaining activity at 10 pM,"[2]; 1 h, Grapiprant log([M]) -11.00, EP4-V72A, read-out: % cAMP activity (normalized to WT)",41%
same,remaining activity at 1 pM,"[2]; 1 h, Grapiprant log([M]) -12.00, EP4-V72A, read-out: % cAMP activity (normalized to WT)",39%
same,"Grapiprant cAMP activity (∆pIC50 from EP4 WT), Mean","[2]; V72A, Mean",-0.652
same,Grapiprant cAMP activity (∆pIC50 from EP4 WT),"[2]; V72A, single experiments 1st-3rd",-0.771 and -0.507 and -0.679
same,ΔpIC50,[2],-0.65 ± 0.08
same,ΔpIC50,[2]; listed as grapiprant,reduced the potency
same,IC50,[3],4.27 nM
same,remaining activity at 0.1 µM,"[3]; 1 h, Grapiprant log([M]) -7.00, EP4-WT, read-out: % cAMP activity (normalized to WT)",4.26%
same,remaining activity at 0.01 µM,"[3]; 1 h, Grapiprant log([M]) -8.00, EP4-WT, read-out: % cAMP activity (normalized to WT)",24.2%
same,remaining activity at 0.001 µM,"[3]; 1 h, Grapiprant log([M]) -9.00, EP4-WT, read-out: % cAMP activity (normalized to WT)",84.9%
same,remaining activity at 0.0001 µM,"[3]; 1 h, Grapiprant log([M]) -10.00, EP4-WT, read-out: % cAMP activity (normalized to WT)",92.5%
same,remaining activity at 10 pM,"[3]; 1 h, Grapiprant log([M]) -11.00, EP4-WT, read-out: % cAMP activity (normalized to WT)",101%
same,remaining activity at 1 pM,"[3]; 1 h, Grapiprant log([M]) -12.00, EP4-WT, read-out: % cAMP activity (normalized to WT)",101%
same,Grapiprant cAMP activity (∆pIC50 from EP4 WT),"[3]; WT, single experiments 1st-3rd",0.061 and -0.077 and -0.012
same,IC50,[4],35.5 nM
same,remaining activity at 10 µM,"[4]; Grapiprant log([M]) -5, read-out: % cAMP activity (normalized to WT)",2.75%
same,remaining activity at 1 µM,"[4]; Grapiprant log([M]) -6, read-out: % cAMP activity (normalized to WT)",3.71%
same,remaining activity at 0.1 µM,[4]; read-out: % cAMP activity (normalized to WT),21%
same,remaining activity at 0.1 µM,"[4]; single experiments 1st-3rd, Fig. S7C, read-out: % cAMP activity (normalized to WT)",30.1%
same,remaining activity at 0.01 µM,"[4]; Grapiprant log([M]) -8, read-out: % cAMP activity (normalized to WT)",83.1%
same,remaining activity at 0.01 µM,"[4]; Grapiprant log([M]) -8, single experiments 1st-3rd, Fig. S7C, read-out: % cAMP activity (normalized to WT)",88.1%
same,remaining activity at 0.001 µM,"[4]; Grapiprant log([M]) -9, read-out: % cAMP activity (normalized to WT)",96.3%
same,remaining activity at 0.0001 µM,"[4]; Grapiprant log([M]) -10, read-out: % cAMP activity (normalized to WT)",90.2%
same,remaining activity at 0.0001 µM,"[4]; Grapiprant log([M]) -10, single experiments 1st-3rd, Fig. S7C, read-out: % cAMP activity (normalized to WT)",96.7%
same,remaining activity at 10 pM,"[4]; Grapiprant log([M]) -11, read-out: % cAMP activity (normalized to WT)",97.9%
same,remaining activity at 10 pM,"[4]; Grapiprant log([M]) -11, single experiments 1st-3rd, Fig. S7C, read-out: % cAMP activity (normalized to WT)",101%
same,remaining activity at 1 pM,"[4]; Grapiprant log([M]) -12, read-out: % cAMP activity (normalized to WT)",103%
same,remaining activity at 1 pM,"[4]; Grapiprant log([M]) -12, single experiments 1st-3rd, Fig. S7C, read-out: % cAMP activity (normalized to WT)",93.3%
same,remaining activity at 10 µM,"[4]; read-out: % cAMP activity EP4 (normalized to Grapiprant), ligand log([M]) -5, single experiments 1st-3rd, Fig. S1A",2.69%
same,remaining activity at 1 µM,"[4]; read-out: % cAMP activity EP4 (normalized to Grapiprant), ligand log([M]) -6, single experiments 1st-3rd, Fig. S1A",5.1%
same,remaining activity at 0.01 µM,"[4]; read-out: % cAMP activity EP4 (normalized to Grapiprant), ligand log([M]) -8, single experiments 1st-3rd, Fig. S1A",94.2%
same,remaining activity at 0.001 µM,"[4]; read-out: % cAMP activity EP4 (normalized to Grapiprant), ligand log([M]) -9, single experiments 1st-3rd, Fig. S1A",97%
same,remaining activity at 0.0001 µM,"[4]; read-out: % cAMP activity EP4 (normalized to Grapiprant), ligand log([M]) -10, single experiments 1st-3rd, Fig. S1A",100%
same,remaining activity at 10 pM,"[4]; read-out: % cAMP activity EP4 (normalized to Grapiprant), ligand log([M]) -11, single experiments 1st-3rd, Fig. S1A",93.5%
same,remaining activity at 1 pM,"[4]; read-out: % cAMP activity EP4 (normalized to Grapiprant), ligand log([M]) -12, single experiments 1st-3rd, Fig. S1A",102%
same,cAMP activity (∆pIC50 from EP4 WT),"[4]; Grapiprant, WT, single experiments 1st-3rd",0.1372 and 0.1162 and -0.1508
same,antagonism profile EP4 versus EP2 (in words),"[4]; cAMP accumulation assay upon PGE2 stimulation, Appendix Fig. S1A","selective antagonists of EP2 and EP4, respectively; also recorded: strong selectivity"
same,remaining activity at 10 µM,"[5]; read-out: % cAMP activity on EP2 (normalized to PF-04418948), ligand log([M]) -5",90.7%
same,remaining activity at 1 µM,"[5]; read-out: % cAMP activity on EP2 (normalized to PF-04418948), ligand log([M]) -6",105%
same,remaining activity at 0.1 µM,"[5]; read-out: % cAMP activity on EP2 (normalized to PF-04418948), ligand log([M]) -7",107%
same,remaining activity at 0.01 µM,"[5]; read-out: % cAMP activity on EP2 (normalized to PF-04418948), ligand log([M]) -8",113%
same,remaining activity at 0.001 µM,"[5]; read-out: % cAMP activity on EP2 (normalized to PF-04418948), ligand log([M]) -9",115%
same,remaining activity at 0.0001 µM,"[5]; read-out: % cAMP activity on EP2 (normalized to PF-04418948), ligand log([M]) -10",114%
same,remaining activity at 10 pM,"[5]; read-out: % cAMP activity on EP2 (normalized to PF-04418948), ligand log([M]) -11",120%
same,remaining activity at 1 pM,"[5]; read-out: % cAMP activity on EP2 (normalized to PF-04418948), ligand log([M]) -12",107%
